Assay results as given in US8338565B2, “Macrocyclic compounds for inhibition of tumor necrosis factor alpha” (Ensemble Therapeutics Corporation, priority 2008, dated 2012).

What follows are compounds tested against T1, TNFα / TNFα receptor (TNFα R1/Fc) (Homo sapiens, UniProt P01375) (assay: Inhibition of binding of TNFα to the TNFα receptor (plate ELISA competition)). Details: Activity (IC50, inhibition of TNFα binding to TNFα R1/Fc), Table 2.
T1 construct: purchased R&D Systems
Summary of the method: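 Compound dilutions were preincubated 30 min at RT with 8.33 nM TNFα R1/Fc in PBST with 2% DMSO, then added to wells coated with 15 nM TNFα for 30 min. Bound receptor was detected with HRP anti-human Fc and TMB, read as A450.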

T1 sequence (P01375 77-233 limits assumed, species assumed): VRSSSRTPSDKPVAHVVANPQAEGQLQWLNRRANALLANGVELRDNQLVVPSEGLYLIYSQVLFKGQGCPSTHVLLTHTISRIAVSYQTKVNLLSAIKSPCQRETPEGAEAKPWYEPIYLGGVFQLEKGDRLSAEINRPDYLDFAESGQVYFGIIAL

Structure (SMILES)	IC50
O=C1COc2ccc(cc2)C[C@@H](C(=O)O)NC(=O)[C@H](CCc2ccccc2)NC(=O)[C@@H](Cc2ccc(-c3ccncc3)cc2)NC(=O)[C@H](Cc2cccs2)N1 [Compound 658]	< 10 µM

Same assay, conditions: Table 2; read-out: Activity (IC50, inhibition of TNFα binding to TNFα R1/Fc)

Structure (SMILES)	IC50
O=C1COc2ccc(cc2)C[C@@H](C(=O)O)NC(=O)[C@H](Cc2cccs2)NC(=O)[C@@H](Cc2ccc(-c3ccccc3)cc2)NC(=O)[C@H](Cc2ccncc2)N1 [Compound 652]	< 10 µM
O=C1COc2ccc(cc2)C[C@@H](C(=O)O)NC(=O)[C@H](Cc2c[nH]c3ccccc23)NC(=O)[C@@H](Cc2ccc(-c3ccccc3)cc2)NC(=O)[C@H](Cc2ccncc2)N1 [Compound 653]	< 10 µM
O=C1COc2ccc(cc2)C[C@@H](C(=O)O)NC(=O)[C@H](CCc2ccccc2)NC(=O)[C@@H](Cc2ccc(-c3ccc(F)cc3)cc2)NC(=O)[C@H](Cc2cccs2)N1 [Compound 655]	< 10 µM
O=C1COc2ccc(cc2)C[C@@H](C(=O)O)NC(=O)[C@H](CCc2ccccc2)NC(=O)[C@@H](Cc2ccc(-c3ccc(O)cc3)cc2)NC(=O)[C@H](Cc2cccs2)N1 [Compound 656]	< 10 µM
O=C1COc2ccc(cc2)C[C@@H](C(=O)O)NC(=O)[C@H](CCc2ccccc2)NC(=O)[C@@H](Cc2ccc(-c3ccccc3)cc2)NC(=O)[C@H](Cc2ccccn2)N1 [Compound 660]	< 10 µM
O=C1COc2ccc(cc2)C[C@@H](C(=O)O)NC(=O)[C@H](CCc2ccccc2)NC(=O)[C@@H](Cc2ccc(-c3ccncc3)cc2)NC(=O)[C@H](Cc2ccccn2)N1 [Compound 661]	30 to 100 µM
O=C1COc2ccc(cc2)C[C@@H](C(=O)O)NC(=O)[C@H](CCc2ccccc2)NC(=O)[C@@H](Cc2ccc(-c3ccccc3)cc2)NC(=O)[C@H](Cc2cccnc2)N1 [Compound 662]	< 10 µM
O=C1COc2ccc(cc2)C[C@@H](C(=O)O)NC(=O)[C@H](CCc2ccccc2)NC(=O)[C@@H](Cc2ccc(-c3ccccn3)cc2)NC(=O)[C@H](Cc2cccnc2)N1 [Compound 663]	> 100 µM
O=C1COc2ccc(cc2)C[C@@H](C(=O)O)NC(=O)[C@H](CCc2ccccc2)NC(=O)[C@@H](Cc2ccc(-c3ccccn3)cc2)NC(=O)[C@H](Cc2ccncc2)N1 [Compound 664]	30 to 100 µM
O=C1COc2ccc(cc2)C[C@@H](C(=O)O)NC(=O)[C@H](CCc2ccccc2)NC(=O)[C@@H](Cc2ccc(-c3cccnc3)cc2)NC(=O)[C@H](Cc2ccncc2)N1 [Compound 665]	10 to 30 µM
O=C1COc2ccc(cc2)C[C@@H](C(=O)O)NC(=O)[C@H](CCc2ccccc2)NC(=O)[C@@H](Cc2ccc(-c3ccncc3)cc2)NC(=O)[C@H](Cc2ccncc2)N1 [Compound 666]	10 to 30 µM
O=C1COc2ccc(cc2)C[C@@H](C(=O)O)NC(=O)[C@H](CCc2ccccc2)NC(=O)[C@@H](Cc2ccc(-c3ccccn3)cc2)NC(=O)[C@H](Cc2ccccn2)N1 [Compound 667]	> 100 µM
O=C1COc2ccc(cc2)C[C@@H](C(=O)O)NC(=O)[C@H](CCc2ccccc2)NC(=O)[C@@H](Cc2ccc(-c3cccnc3)cc2)NC(=O)[C@H](Cc2cccnc2)N1 [Compound 668]	> 100 µM
O=C1COc2ccc(cc2)C[C@H](C(=O)O)NC(=O)[C@H](CCc2ccccc2)NC(=O)[C@@H](Cc2ccc(-c3ccccc3)cc2)NC(=O)[C@H](Cc2cccs2)N1 [Compound 673]	< 10 µM
O=C1COc2ccc(cc2)C[C@H](C(=O)O)NC(=O)[C@H](Cc2ccccc2)NC(=O)[C@@H](Cc2ccc(-c3ccccc3)cc2)NC(=O)[C@H](Cc2cccs2)N1 [Compound 675]	> 100 µM
O=C1COc2ccc(cc2)C[C@@H](C(=O)O)NC(=O)[C@H](CCc2ccccc2)NC(=O)[C@@H](Cc2ccc(-c3ccccc3)cc2)NC(=O)[C@H](Cc2ccccc2F)N1 [Compound 677]	< 10 µM
O=C1COc2ccc(cc2)C[C@@H](C(=O)O)NC(=O)[C@H](CCc2ccccc2)NC(=O)[C@@H](Cc2ccc(-c3ccccc3)cc2)NC(=O)[C@H](Cc2ccc(F)cc2)N1 [Compound 679]	< 10 µM
COc1cccc(C[C@@H]2NC(=O)COc3ccc(cc3)C[C@@H](C(=O)O)NC(=O)[C@H](CCc3ccccc3)NC(=O)[C@@H](Cc3ccc(-c4ccccc4)cc3)NC2=O)c1 [Compound 680]	< 10 µM
COc1ccc(C[C@@H]2NC(=O)COc3ccc(cc3)C[C@@H](C(=O)O)NC(=O)[C@H](CCc3ccccc3)NC(=O)[C@@H](Cc3ccc(-c4ccccc4)cc3)NC2=O)cc1 [Compound 681]	< 10 µM
O=C1COc2ccc(cc2)C[C@@H](C(=O)O)NC(=O)[C@H](CCc2ccccc2)NC(=O)[C@@H](Cc2ccc(-c3ccccc3)cc2)NC(=O)[C@H](Cc2ccc(-c3ccncc3)cc2)N1 [Compound 684]	< 10 µM
O=C1COc2ccc(cc2)C[C@@H](C(=O)O)NC(=O)[C@H](CCc2ccccc2)NC(=O)[C@@H](Cc2ccc(-c3ccccc3)cc2)NC(=O)[C@H](Cc2ccc(OCc3ccccc3)cc2)N1 [Compound 685]	< 10 µM
O=C1COc2ccc(cc2)C[C@@H](C(=O)O)NC(=O)[C@H](CCc2ccccc2)NC(=O)[C@@H](Cc2ccc(-c3ccccc3)cc2)NC(=O)[C@H](Cc2ccc(O)cc2)N1 [Compound 686]	< 10 µM

Structure (SMILES)	IC50
O=C1COc2ccc(cc2)C[C@@H](C(=O)O)NC(=O)[C@H](CCc2ccccc2)NC(=O)[C@@H](Cc2ccc(-c3ccccc3)cc2)NC(=O)[C@H](Cc2ccco2)N1 [Compound 687]	< 10 µM
O=C1COc2ccc(cc2)C[C@@H](C(=O)O)NC(=O)[C@H](CCc2ccccc2)NC(=O)[C@@H](Cc2ccc(-c3ccccc3)cc2)NC(=O)[C@H](Cc2ccccc2C(F)(F)F)N1 [Compound 689]	< 10 µM
O=C1COc2ccc(cc2)C[C@@H](C(=O)O)NC(=O)[C@H](CCc2ccccc2)NC(=O)[C@@H](Cc2ccc(-c3ccccc3)cc2)NC(=O)[C@H](Cc2cccc(C(F)(F)F)c2)N1 [Compound 690]	10 to 30 µM
O=C1COc2ccc(cc2)C[C@@H](C(=O)O)NC(=O)[C@H](CCc2ccccc2)NC(=O)[C@@H](Cc2ccc(-c3ccccc3)cc2)NC(=O)[C@H](Cc2ccc(C(F)(F)F)cc2)N1 [Compound 691]	< 10 µM
Cc1ccc(C[C@@H]2NC(=O)COc3ccc(cc3)C[C@@H](C(=O)O)NC(=O)[C@H](CCc3ccccc3)NC(=O)[C@@H](Cc3ccc(-c4ccccc4)cc3)NC2=O)cc1 [Compound 692]	< 10 µM
O=C1COc2ccc(cc2)C[C@@H](C(=O)O)NC(=O)[C@H](CCc2ccccc2)NC(=O)[C@@H](Cc2ccc(-c3ccccc3)cc2)NC(=O)[C@H](Cc2cn(-c3ccccc3)nn2)N1 [Compound 693]	< 10 µM
O=C1COc2ccc(cc2)C[C@@H](C(=O)O)NC(=O)[C@H](CCc2ccccc2)NC(=O)[C@@H](Cc2ccc(-c3ccccc3)cc2)NC(=O)[C@H](Cc2cccc3ccccc23)N1 [Compound 694]	< 10 µM
O=C1COc2ccc(cc2)C[C@@H](C(=O)O)NC(=O)[C@H](CCc2ccccc2)NC(=O)[C@@H](Cc2ccc(-c3ccccc3)cc2)NC(=O)[C@H](Cc2ccc3ccccc3c2)N1 [Compound 695]	< 10 µM
O=C1COc2ccc(cc2)C[C@@H](C(=O)O)NC(=O)[C@H](CCc2ccccc2)NC(=O)[C@@H](Cc2ccc(-c3ccccc3)cc2)NC(=O)[C@H](Cc2cscn2)N1 [Compound 696]	< 10 µM
O=C1COc2ccc(cc2)C[C@@H](C(=O)O)NC(=O)[C@H](CCc2ccccc2)NC(=O)[C@@H](Cc2ccc(-c3ccccc3)cc2)NC(=O)[C@H](Cc2ccc(Cl)cc2Cl)N1 [Compound 697]	< 10 µM
O=C1COc2ccc(cc2)C[C@@H](C(=O)O)NC(=O)[C@H](CCc2ccccc2)NC(=O)[C@@H](Cc2ccc(-c3ccccc3)cc2)NC(=O)[C@H](Cc2ccc(-c3ccc(F)cc3)cc2)N1 [Compound 698]	< 10 µM
O=C1COc2ccc(cc2)C[C@@H](C(=O)O)NC(=O)[C@H](CCc2ccccc2)NC(=O)[C@@H](Cc2ccc(-c3ccccc3)cc2)NC(=O)[C@H](Cc2ccc(-c3ccc(Cl)cc3)cc2)N1 [Compound 702]	< 10 µM
Cn1cnc(C[C@@H]2NC(=O)COc3ccc(cc3)C[C@@H](C(=O)O)NC(=O)[C@H](CCc3ccccc3)NC(=O)[C@@H](Cc3ccc(-c4ccccc4)cc3)NC2=O)c1 [Compound 706]	10 to 30 µM
O=C1COc2ccc(cc2)C[C@@H](C(=O)O)NC(=O)[C@H](CCc2ccccc2)NC(=O)[C@@H](Cc2ccc(-c3ccccc3)cc2)NC(=O)[C@H](Cc2ccc(Cl)cc2)N1 [Compound 707]	< 10 µM
O=C1Nc2ccc(cc2)C[C@H](C(=O)N[C@@H](Cc2ccccc2)C(=O)O)NC(=O)[C@@H](Cc2ccccc2)NC(=O)[C@H](Cc2ccc(-c3ccccc3)cc2)NC(=O)[C@@H](Cc2cccs2)NC(=O)C2CC12 (some centres unmarked) [Compound 708]	< 10 µM
O=C(O)CCCNC(=O)[C@H]1Cc2ccc(cc2)OCC(=O)N[C@@H](Cc2c[nH]c3ccccc23)C(=O)N[C@H](Cc2ccc(-c3ccccc3)cc2)C(=O)N[C@@H](Cc2c[nH]c3ccccc23)C(=O)N1 [Compound 716]	< 10 µM
O=C(O)CCCNC(=O)[C@H]1Cc2ccc(cc2)OCC(=O)N[C@@H](Cc2ccncc2)C(=O)N[C@H](Cc2ccc(-c3ccccc3)cc2)C(=O)N[C@@H](Cc2c[nH]c3ccccc23)C(=O)N1 [Compound 717]	10 to 30 µM
O=C(O)CCCNC(=O)[C@@H]1Cc2ccc(cc2)OCC(=O)N[C@@H](Cc2c[nH]c3ccccc23)C(=O)N[C@H](Cc2ccc(-c3ccccc3)cc2)C(=O)N[C@@H](Cc2ccccc2F)C(=O)N1 [Compound 718]	< 10 µM
O=C(O)CCCNC(=O)[C@@H]1Cc2ccc(cc2)OCC(=O)N[C@@H](Cc2ccncc2)C(=O)N[C@H](Cc2ccc(-c3ccccc3)cc2)C(=O)N[C@@H](Cc2ccccc2F)C(=O)N1 [Compound 719]	< 10 µM
O=C(O)CCCNC(=O)[C@@H]1Cc2ccc(cc2)OCC(=O)N[C@@H](Cc2c[nH]c3ccccc23)C(=O)N[C@H](Cc2ccc(-c3ccccc3)cc2)C(=O)N[C@@H](CCc2ccccc2)C(=O)N1 [Compound 720]	< 10 µM
O=C(O)CCCNC(=O)[C@@H]1Cc2ccc(cc2)OCC(=O)N[C@@H](Cc2c[nH]c3ccccc23)C(=O)N[C@H](Cc2ccc(-c3ccccc3)cc2)C(=O)N[C@@H](Cc2c[nH]c3ccccc23)C(=O)N1 [Compound 721]	< 10 µM
